This passage reports EC50, Fold resistance and Fold-resistance results from patent publication US20030207843A1, “Treatment of drug-resistant human immunodeficiency virus infection” (priority 1999, published 2003).

Like-named read-outs stand apart in the source and are kept apart here.

One may read the EC50 as the concentration that produces a half-maximal response.

Holding throughout (format): cell-based
The test system of experiment [1] is HIV-1LAI 4XAZT/W88G. Nature of the experiment: p24 reduction assay in MT-2 cells, 4XAZT/W88G. The method, then:
(§1) Cells. MT-2 cells (AIDS Research and Reference Reagent Program, National Institute of Allergy and Infectious Diseases, National Institutes of Health) were maintained in RPMI 1640 supplemented with 10% fetal bovine serum (FBS; JRH Biosciences, Lenexa, Kans.), 10 mM HEPES buffer, 50 IU/ml penicillin and 50 μg/ml streptomycin.
(§2) Antiviral Susceptibility Assays. The antiviral activity of each compound was determined by inoculating MT-2 cells with HIV-1LAI at a multiplicity of infection (MOI) of 0.01 TCID50/cell, followed by incubation in the presence of three-fold serial drug dilutions (3 wells per dilution) (see Mellors, et. al., Antimicrob. Agents Chemother. 39:1087-1092). Five or seven days after infection, culture supernatants were harvested, lysed with 0.5% triton-X 100 and assayed for p24 antigen concentration using a commercial ELISA assay (DuPont, NEN Products, Wilmington, Del.). The antiviral activity of the compounds is expressed as the IC50, which is the concentration required to inhibit 50% of p24 antigen production. The fold-resistance of a test virus is calculated by dividing the IC50 of the test virus by the IC50 of the HIV-1LAI control virus.
(§3) Generation of Mutant Recombinant HIV-1. HIV-1 containing the desired mutations were generated by oligonucleotide directed mutagenesis (Altered Sites II, Promega) as previously described (Mellors, et. al., Molecular Pharm. 41:446-451). After mutagenesis, mutant RT was subcloned into the pxxHIV-1LAI cloning vector using the silent XmaI and XbaI restriction sites located at the 5′ and 3′ ends of RT. Clones were DNA sequenced to verify the presence of the desired mutation(s) and electroporated into MT-2 cells as described above to generate infectious mutant recombinant HIV-1.
(§4) Mutant RT was generated via oligonucleotide-directed mutagenesis and ligated into the pXXHIV-1LAI cloning vector. Cloning was facilitated by the presence of two silent restriction sites at the 5′ and 3′ ends (Xma1 and Xba1, respectively) of pXXHIV-1LAI RT. Infectious mutant recombinant HIV-1 was generated by electroporating MT-2 cells with mutated pXXHIV-1LAI clones. The presence of the desired mutations was verified by DNA sequencing.
(§5) Invention compounds were also evaluated against a panel of HIV-1LAI derived recombinants resistant to PFA and the PFA invention compounds, as shown in Table 7.
Recombinant viruses containing the mutations selected by invention compounds were also evaluated for their susceptibility to AZT, as shown in Table 8.

Experiment [2] concerns HIV-1LAI M184V. As to the kind of experiment: p24 reduction assay in MT-2 cells, M184V. The note with it: for EC50: M184V; for Fold-resistance: M184V relative to wild type virus. The protocol:
as §1, §2, §3, §4
(§6) The multi-drug resistant HIV-1 strains, 11163p1 and 11588p1, are human clinical isolates having the RT mutations indicated. HIV-1 strains treated with the lipid analogs of the present invention include wild type, e.g., xxLAI, and the like, single mutation, e.g., xxLAI MI 84V (resistant to 3TC), xxLAI L74V (resistant to ddI and ddC), xxLAI K65R (resistant to ddI, ddC, DAPD, DXG, tenofovir, and adefovir), xxLAI T215Y (resistant to AZT), and the like, double mutations, e.g., xxLAI M41 L/T215Y (resistant to AZT), xxLAI MI 84V/T215Y (resistant to 3TC and AZT), and the like, and multiple mutations, e.g., xxLAI 4XAZT ((D67N, K70R, T215Y, K219Q) resistant to AZT)), xxLAI 4XAZT/M184V ((D67N, K70R, M 184V, T215Y, K219Q) resistant to AZT and 3TC), xxLAI M5456-12 (AZT+NNRTI resistant: D67N, K70R, K103N, T215Y), xxLAI G2-3g (AZT/3TC co-resistant: M41L, D67N, M184V, H208Y, L210W, R211K, L214F, T215Y, 1293V, E297A), 11163 (multinucleoside resistant virsus: M41L, A62V, V751, F77L, K103N, F116Y, Q151M, Y181C, M184V), 11588 (multinucleoside resistant virsus: A62V, K65R, K70R, V751, F77L, F116Y, Q151M, M184V, K219Q), and the like.

Experiment [3] concerns HIV-1LAI 4XAZT/M184V. Nature of the experiment: p24 reduction assay in MT-2 cells, 4XAZT/M184V. As to conditions: for Fold-resistance: 4XAZT/M184V relative to wild type virus. The protocol:
as §1, §2, §3, §4, §6

The test system of experiment [4] is multidrug-resistant HIV-1 clinical isolate 11588p1. Nature of the experiment: p24 reduction assay in MT-2 cells, 11588p1. The method, then: as §1
as §2, with “[…],” for “was determined by inoculating MT-2 cells with HIV-1LAI at a multiplicity of infection (MOI) of 0.01 TCID50/cell,”
as §6

Experiment [5] deals with HIV-1LAI W88S. Nature of the experiment: p24 reduction assay in MT-2 cells, W88S. As to conditions: Table 7; for EC50: W88S; for Fold-resistance: W88S relative to wild type virus. The protocol:
as §1, §2, §3, §4, §5

For experiment [6], the system named is HIV-1LAI E89G. As to the kind of experiment: p24 reduction assay in MT-2 cells, E89G. As to conditions: Table 7; for EC50: E89G; for Fold-resistance: E89G relative to wild type virus. The method, then: as §1, §2, §3, §4, §5
Experiment [7] has as its system HIV-1LAI Q161L/H208Y. As to the kind of experiment: p24 reduction assay in MT-2 cells, Q161L/H208Y. As to conditions: Table 7; for EC50: Q161L/H208Y; for Fold-resistance: Q161L/H208Y relative to wild type virus. The method, then:
as §1, §2, §3, §4, §5

The test system of experiment [8] is HIV-1LAI 4XAZT/E89K. Nature of the experiment: p24 reduction assay in MT-2 cells, 4XAZT/E89K. As to conditions: Table 7; for EC50: 4XAZTE89K; for Fold-resistance: 4XAZTE89K relative to wild type virus. The protocol:
as §1, §2, §3, §4, §5

The subject of experiment [9] is HIV-1LAI 4XAZT/Q161L. As to the kind of experiment: p24 reduction assay in MT-2 cells, 4XAZT/Q161L. The note with it: Table 7; for EC50: 4XAZTQ161L; for Fold-resistance: 4XAZTQ161L relative to wild type virus. The method, then: as §1, §2, §3, §4, §5
The mark [10] stands for this setting: Table 1, 4xAZT/M184V, MOI 0.01, read-out: EC50.
The mark [11] stands for this setting: Table 5, 4XAZT/M184V, mean ± SD, read-out: EC50.
[12] abbreviates: Table 7, 4XAZTW88G, read-out: EC50.
[13] abbreviates: Human immunodeficiency virus 1, MT2.

As to `Cc1cn([C@H]2C[C@H](N=[N+]=[N-])[C@@H](CO)O2)c(=O)[nH]c1=O` [AZT, 3′-Azido-3′-deoxythymidine], the EC50 in experiment [1] (Human immunodeficiency virus 1, MT2, Table 8, W88G/4XAZT, read-out: AZT EC50) stood at 0.06 ± 0.018 µM. In addition, in experiment [1] (Table 8, W88G/4XAZT relative to wild type virus), the Fold resistance stood at 1.5.

With `CCCCCCCCCCCCCCCCCCOC[C@H](COP(=O)(O)C(=O)O)OCC` [EB-PFA, 1-O-octadecyl-2-O-ethyl-sn-glycero-3-PFA], the concentration giving a half-maximal response (EC50) in experiment [2] (Table 1, MOI 0.01) was determined as 0.58 µM; in experiment [2] (Table 3, mean ± SD), 1.36 ± 0.93 µM; in experiment [3] (setting [10]) it was 0.58 µM; in [3] (setting [11]) it was 0.56 ± 0.08 µM; in experiment [4] (Table 2, MOI 0.05), 0.73 µM; in [5] it was 2.39 µM. Further, the EC50 in experiment [6] is over 26.1 µM; in experiment [7] it was 7.02 µM; in experiment [1] (setting [12]), 3.31 µM; in experiment [8], 4.39 µM; in experiment [9] it was 1.18 µM. For the same compound, the Fold-resistance entry is given as “(0.7)” in [2] (Table 3); “(0.9)” in experiment [3] (Table 5); 0.15 (2.7) in experiment [5]; “(>29.0)” in [6]; 4.59 (5.6) in [8].

Regarding `CCCCCCCCCCCCCCCCCCOC[C@@H](O)COP(=O)(O)C(=O)O` [B-PFA, 1-O-octadecyl-sn-glycero-3-PFA], the EC50 worked out at 2.29 µM in [2] (Table 1, MOI 0.01); 1.93 ± 0.54 µM in experiment [2] (Table 3, mean ± SD); 2.29 µM in [3] (setting [10]); 2.29 ± 1.59 µM in experiment [3] (setting [11]); 9.31 µM in experiment [4] (Table 2, MOI 0.05); 20.7 µM in experiment [5]. In addition, the EC50 was over 30 µM in experiment [6]; over 30 µM in experiment [7]; 16.4 µM in [1] (setting [12]); 17.4 µM in experiment [8]; 6.64 µM in experiment [9]. In addition, the Fold-resistance entry was “(0.7)” in experiment [2] (Table 3); “(1.3)” in [3] (Table 5); 1.20 (11.9) in experiment [5]; “(>17.2)” in experiment [6]; “(>17.2)” in experiment [7]; 14.9 (6.6) in experiment [8]. For the same compound, in [9], the Fold-resistance is listed as 2.10 (2.5).

With `O=C(O)P(=O)(O)O` [PFA, phosphonoformate, reference compound], the EC50 in experiment [2] (Human immunodeficiency virus 1, MT2, Table 1, MOI 0.01) came to 15.7 µM; in experiment [2] (Human immunodeficiency virus 1, MT2, Table 3, mean ± SD) it was 33.4 ± 18.7 µM; in experiment [3] (Human immunodeficiency virus 1, MT2, Table 1, 4xAZT/M184V, MOI 0.01), 15.7 µM; in experiment [3] (Human immunodeficiency virus 1, MT2, Table 5, 4XAZT/M184V, mean ± SD, read-out: EC50), 22.7 ± 15.8 µM; in [4] (Human immunodeficiency virus 1, MT2, Table 2, MOI 0.05), 23.5 µM; in experiment [5] (setting [13]), 67.1 µM. Also, the EC50 in experiment [6] (setting [13]) was determined as 241 µM; in [7] (setting [13]), 126 µM; in experiment [1] (Human immunodeficiency virus 1, MT2, Table 7, 4XAZTW88G, read-out: EC50) it was 86.2 µM; in [8] (setting [13]), 134 µM; in experiment [9] (setting [13]), 39.9 µM. Moreover, the Fold-resistance entry in experiment [2] (Table 3) is on record as “(1.7)”; in experiment [3] (Table 5), “(1.3)”; in experiment [9], 9.40 (2.3).

In the case of `CCCCCCCCCCCCCCCCCCOC[C@H](COP(=O)(O)C(=O)O)OC` [MB-PFA, 1-O-octadecyl-2-O-methyl-sn-glycero-3-PFA], the EC50 in [2] (Table 1, MOI 0.01) was determined as 0.48 µM; in [2] (Table 3, mean ± SD) it was 1.51 ± 0.45 µM; in [3] (setting [10]) it was 0.48 µM; in [3] (setting [11]), 0.59 ± 0.36 µM; in experiment [4] (Table 2, MOI 0.05), 1.16 µM; in experiment [5], 2.49 µM. The EC50 was over 30 µM in experiment [6]; 12.8 µM in experiment [7]; 2.46 µM in experiment [1] (setting [12]); 9.28 µM in experiment [8]; 1.87 µM in experiment [9]. Moreover, the Fold-resistance entry was “(1.7)” in experiment [2] (Table 3); “(1.2)” in [3] (Table 5); 0.12 (3.2) in experiment [5]; “(>39.0)” in experiment [6]; 9.00 (17.7) in [7]; 9.20 (11.1) in experiment [8]. Further, in [9], the Fold-resistance is 0.33 (2.2).
